Experimental data: ChEMBL document CHEMBL1201862, “PubChem BioAssay data set” (2004)
Calls of active or inactive are those of the source.

Tests used:
[1] = molecular target: T1, Heat shock factor protein 1 (Mus musculus, UniProt P38532); test: enhancement of HSF1-driven luciferase signal – cell-based, NIH3T3, luminescence, dose retest, confirmation (AID 435004); format: functional;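 further: stress induced by proteasome inhibitor MG132 added 30 min after compound; luciferase reporter driven by HSF1 response element in NIH3T3 cells; actives raise luminescence as potentiators of the MG132 stress response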
T1 sequence (P38532 whole entry): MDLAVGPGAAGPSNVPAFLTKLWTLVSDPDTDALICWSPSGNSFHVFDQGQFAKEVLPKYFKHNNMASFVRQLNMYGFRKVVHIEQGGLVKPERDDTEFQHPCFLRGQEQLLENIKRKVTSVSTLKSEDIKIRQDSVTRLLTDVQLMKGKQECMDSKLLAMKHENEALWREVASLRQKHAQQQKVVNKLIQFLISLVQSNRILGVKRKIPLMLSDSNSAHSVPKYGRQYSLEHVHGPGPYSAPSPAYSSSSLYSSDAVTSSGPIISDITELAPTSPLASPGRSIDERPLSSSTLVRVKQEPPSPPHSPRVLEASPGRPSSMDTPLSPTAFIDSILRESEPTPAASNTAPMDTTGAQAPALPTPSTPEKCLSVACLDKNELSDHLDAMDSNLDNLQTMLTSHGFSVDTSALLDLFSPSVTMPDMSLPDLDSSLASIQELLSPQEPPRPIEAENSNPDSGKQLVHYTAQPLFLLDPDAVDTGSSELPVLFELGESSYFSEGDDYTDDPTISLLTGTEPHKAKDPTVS

Cytochrome P450 2D6 = Cytochrome P450 2D6 (Homo sapiens, UniProt P10635);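 further: CYP2D6 member of a cytochrome P450 panel assay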
Sequence of Cytochrome P450 2D6 (P10635 whole entry): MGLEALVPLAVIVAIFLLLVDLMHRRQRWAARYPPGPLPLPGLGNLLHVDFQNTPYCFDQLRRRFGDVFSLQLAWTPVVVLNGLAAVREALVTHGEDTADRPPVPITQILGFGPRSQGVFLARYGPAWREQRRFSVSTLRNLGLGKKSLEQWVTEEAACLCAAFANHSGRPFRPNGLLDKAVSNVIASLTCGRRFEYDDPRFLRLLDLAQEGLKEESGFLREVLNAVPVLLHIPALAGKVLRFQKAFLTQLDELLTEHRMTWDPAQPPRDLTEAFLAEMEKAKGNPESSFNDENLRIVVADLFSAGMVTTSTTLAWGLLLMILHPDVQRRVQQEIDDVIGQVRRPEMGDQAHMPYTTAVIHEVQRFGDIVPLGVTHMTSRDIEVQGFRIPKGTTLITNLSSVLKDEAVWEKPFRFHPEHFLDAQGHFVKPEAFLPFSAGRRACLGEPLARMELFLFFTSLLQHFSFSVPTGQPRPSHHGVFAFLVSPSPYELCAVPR

Cytochrome P450 2C19 = Cytochrome P450 2C19 (Homo sapiens, UniProt P33261); test: Cytochrome panel assay with activity outcomes. Panel member name: p450-cyp2c19 Compounds with AC50 equal or less than 10 uM are considered active; format: functional; details: read-out: AC50
Sequence of Cytochrome P450 2C19 (P33261 whole entry): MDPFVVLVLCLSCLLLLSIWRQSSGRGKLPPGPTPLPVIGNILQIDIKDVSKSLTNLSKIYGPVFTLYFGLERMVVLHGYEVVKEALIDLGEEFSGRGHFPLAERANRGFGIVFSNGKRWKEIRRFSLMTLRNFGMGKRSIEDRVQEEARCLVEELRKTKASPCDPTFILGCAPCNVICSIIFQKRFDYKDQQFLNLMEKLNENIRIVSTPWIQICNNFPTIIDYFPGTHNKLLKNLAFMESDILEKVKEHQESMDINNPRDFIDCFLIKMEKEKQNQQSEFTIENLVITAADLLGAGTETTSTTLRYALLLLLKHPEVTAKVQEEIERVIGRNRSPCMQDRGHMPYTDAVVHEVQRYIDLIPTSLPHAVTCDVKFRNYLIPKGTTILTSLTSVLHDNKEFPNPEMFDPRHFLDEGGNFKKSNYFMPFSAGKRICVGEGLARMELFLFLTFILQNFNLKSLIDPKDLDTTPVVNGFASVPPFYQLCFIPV

Cytochrome P450 3A4 = Cytochrome P450 3A4 (Homo sapiens, UniProt P08684);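 further: CYP3A4 tested as one member of a cytochrome P450 panel screen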
Sequence of Cytochrome P450 3A4 (P08684 whole entry): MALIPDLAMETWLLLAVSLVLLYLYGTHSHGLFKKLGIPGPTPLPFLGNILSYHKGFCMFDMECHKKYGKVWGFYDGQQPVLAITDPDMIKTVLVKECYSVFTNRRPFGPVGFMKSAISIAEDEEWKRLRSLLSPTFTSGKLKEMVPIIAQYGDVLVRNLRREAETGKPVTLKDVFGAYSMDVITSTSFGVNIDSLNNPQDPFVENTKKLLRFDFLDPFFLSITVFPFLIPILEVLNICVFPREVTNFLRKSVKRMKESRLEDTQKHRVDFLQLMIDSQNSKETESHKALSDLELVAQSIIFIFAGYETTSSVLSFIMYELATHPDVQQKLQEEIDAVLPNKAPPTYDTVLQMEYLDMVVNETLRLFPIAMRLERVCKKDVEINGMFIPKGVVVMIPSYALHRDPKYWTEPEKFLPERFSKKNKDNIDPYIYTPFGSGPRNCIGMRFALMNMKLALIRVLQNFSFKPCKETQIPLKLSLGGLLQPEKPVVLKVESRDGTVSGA

Cytochrome P450 2C9 = Cytochrome P450 2C9 (Homo sapiens, UniProt P11712)
Sequence of Cytochrome P450 2C9 (P11712 whole entry): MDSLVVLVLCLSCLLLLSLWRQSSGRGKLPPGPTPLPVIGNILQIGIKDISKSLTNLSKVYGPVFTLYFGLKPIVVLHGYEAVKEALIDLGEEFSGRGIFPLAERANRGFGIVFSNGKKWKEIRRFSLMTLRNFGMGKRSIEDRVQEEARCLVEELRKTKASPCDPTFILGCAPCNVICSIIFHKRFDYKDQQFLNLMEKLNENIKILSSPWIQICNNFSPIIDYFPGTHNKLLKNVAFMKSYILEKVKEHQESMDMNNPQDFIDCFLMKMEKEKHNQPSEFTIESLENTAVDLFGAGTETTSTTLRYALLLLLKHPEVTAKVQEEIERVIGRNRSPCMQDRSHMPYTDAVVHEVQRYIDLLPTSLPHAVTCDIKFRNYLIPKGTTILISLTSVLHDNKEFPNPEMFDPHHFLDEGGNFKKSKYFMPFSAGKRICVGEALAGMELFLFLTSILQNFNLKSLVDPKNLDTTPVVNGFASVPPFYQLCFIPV

INS1 = test: INS-1E survival protection against cytokine death – cell-based, luminescence, retest, dose response (AID 449756); format: functional; details: Rattus norvegicus;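 further: cell death triggered by IL-1 beta plus TNF-alpha plus IFN-gamma mixture; protective hits raise ATP signal compared with cytokine alone wells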
[2] = NIH-3T3 fibroblast cytotoxicity, dose response, cytotoxicity control, cell-based, fluorescence, Alamar Blue, secondary assay (AID 2327); format: functional;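 further: NIH-3T3 mouse fibroblasts cultured with fluconazole at 8 µg/mL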
[3] = NIH3T3 cell viability loss – ATP luminescence, mouse fibroblasts, counter-screen, dose response (AID 2010); format: functional, cell-based;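 further: cells exposed to compound for about 90 hours before reading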
[4] = Trypanosoma cruzi growth suppression in host cells – NIH3T3 host cells, beta-gal luminescence, confirmation (AID 2044); format: functional, cell-based;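 further: intracellular parasites grown in NIH/3T3 mouse fibroblasts as host cells; luminescent beta-galactosidase reporter signal from transgenic T. cruzi replicating inside host cells; inhibitors lower the luminescence signal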
[5] = fluconazole-exposed Candida albicans growth modulators – fluorescence, retest, confirmation (AID 2467); format: functional, cell-based
Protein RecA = molecular target: T2, Protein RecA (Mycobacterium tuberculosis, UniProt P9WHJ3); test: Fluorescence Cell-Free Homogeneous Dose Retest to Identify Inhibitors of RecA-Intein Splicing Activity. [Related pubchem assays (depositor defined):AID2097, AID2223, AID489010, AID492950]; format: functional
T2 sequence (P9WHJ3 whole entry): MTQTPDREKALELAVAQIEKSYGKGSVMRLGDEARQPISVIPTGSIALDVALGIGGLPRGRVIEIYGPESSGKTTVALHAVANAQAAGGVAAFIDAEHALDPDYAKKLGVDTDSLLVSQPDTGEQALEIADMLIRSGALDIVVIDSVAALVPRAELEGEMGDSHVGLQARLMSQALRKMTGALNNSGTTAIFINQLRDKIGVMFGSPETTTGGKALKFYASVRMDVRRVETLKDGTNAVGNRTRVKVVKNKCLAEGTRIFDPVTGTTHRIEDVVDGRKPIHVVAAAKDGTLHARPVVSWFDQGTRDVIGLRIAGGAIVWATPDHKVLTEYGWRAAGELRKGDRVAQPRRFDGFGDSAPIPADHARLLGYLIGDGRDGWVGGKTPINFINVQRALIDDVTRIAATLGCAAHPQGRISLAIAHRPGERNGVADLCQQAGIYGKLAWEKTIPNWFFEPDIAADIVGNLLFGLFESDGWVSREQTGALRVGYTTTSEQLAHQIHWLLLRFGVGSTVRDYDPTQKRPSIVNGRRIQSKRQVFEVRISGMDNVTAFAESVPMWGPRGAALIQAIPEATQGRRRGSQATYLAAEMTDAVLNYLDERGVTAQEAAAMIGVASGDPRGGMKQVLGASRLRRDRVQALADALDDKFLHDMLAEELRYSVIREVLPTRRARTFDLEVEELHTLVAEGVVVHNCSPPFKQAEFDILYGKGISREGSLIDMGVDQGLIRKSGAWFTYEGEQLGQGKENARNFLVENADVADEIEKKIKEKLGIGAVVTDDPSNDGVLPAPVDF

[6] = molecular target: T3, Replicative DNA helicase DnaB (Mycobacterium tuberculosis, UniProt P9WMR3); test: DnaB intein splicing inhibitors, dose response, biochemical, cell-free fluorescence (AID 449749); format: functional
T3 sequence (P9WMR3 whole entry): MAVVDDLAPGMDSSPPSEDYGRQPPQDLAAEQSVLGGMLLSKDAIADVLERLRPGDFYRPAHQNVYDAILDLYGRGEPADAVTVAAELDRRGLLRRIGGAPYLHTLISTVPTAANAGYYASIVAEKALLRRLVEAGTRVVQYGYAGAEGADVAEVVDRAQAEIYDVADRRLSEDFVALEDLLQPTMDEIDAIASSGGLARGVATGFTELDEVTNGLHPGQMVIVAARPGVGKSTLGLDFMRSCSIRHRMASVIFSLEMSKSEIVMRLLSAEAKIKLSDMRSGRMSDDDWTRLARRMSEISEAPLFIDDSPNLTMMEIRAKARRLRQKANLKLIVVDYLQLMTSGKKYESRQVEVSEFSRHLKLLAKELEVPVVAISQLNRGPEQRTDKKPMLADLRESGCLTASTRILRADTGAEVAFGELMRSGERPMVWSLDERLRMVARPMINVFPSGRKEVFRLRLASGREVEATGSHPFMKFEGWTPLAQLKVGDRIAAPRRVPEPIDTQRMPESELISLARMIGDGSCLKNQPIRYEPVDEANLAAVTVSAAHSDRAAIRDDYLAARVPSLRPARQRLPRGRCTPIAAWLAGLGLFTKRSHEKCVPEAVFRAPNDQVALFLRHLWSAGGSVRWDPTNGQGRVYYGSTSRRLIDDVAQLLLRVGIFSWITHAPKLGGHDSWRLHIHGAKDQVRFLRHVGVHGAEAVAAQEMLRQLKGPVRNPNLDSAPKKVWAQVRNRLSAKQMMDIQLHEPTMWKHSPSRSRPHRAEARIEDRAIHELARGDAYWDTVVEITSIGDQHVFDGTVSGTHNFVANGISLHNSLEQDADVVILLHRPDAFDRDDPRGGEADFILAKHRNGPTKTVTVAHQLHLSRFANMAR

Cc1cccc(-c2cc3c(nn2)-c2ccccc2C3=O)c1
EC50 [1]: 0.897 µM (active)

COc1ncc2nc(CCc3ccccc3)c(=O)n(C)c2n1
AC50 (Cytochrome P450 2D6): 20 µM (inconclusive)
AC50 (Cytochrome P450 2C19): 25.1 µM (inconclusive)

N#Cc1cccc(-c2nc(NCc3ccccc3)c3ccccc3n2)c1
AC50 (Cytochrome P450 3A4): 20 µM (inconclusive)

CCCc1cc2c(n1Cc1cc(F)cc(F)c1)C(C)C1CN(C(=O)c3ccccc3)C(C)(C(=O)OC)C21 (stereo not drawn)
AC50 (Cytochrome P450 2D6): 25.1 µM (inconclusive)
AC50 (Cytochrome P450 2C19): 39.8 µM (inconclusive)

Cc1nc2sccc2c(=O)n1-c1cccc(Cl)c1
AC50 (Cytochrome P450 2D6): 12.6 µM (inconclusive)
AC50 (Cytochrome P450 2C9): 20 µM (inconclusive)

CCOC(=O)C1C(=O)NC(C)C1c1ccccc1 (stereo not drawn)
AC50 (Cytochrome P450 2D6): 0.0501 µM (inconclusive)
AC50 (Cytochrome P450 2C19): 31.6 µM (inconclusive)

CC(=O)N1N=C(c2ccccc2)CC1c1ccccc1[N+](=O)[O-] (stereo not drawn)
EC50 [1]: > 260 µM (inactive)

Cc1ccc[n+](CC(=O)Nc2ccc([N+](=O)[O-])cc2Cl)c1
EC50 [1]: > 260 µM (inactive)

CC(C)(C)c1ccc(NNC(=O)C2CCC2)cc1
AC50 (INS1): 7.4 µM (active)

CCSc1nnc(NC(=O)c2cccnc2Cl)s1
EC50 [1]: > 260 µM (inactive)

CCN(c1ccccc1)S(=O)(=O)c1cc(NC(=O)Nc2ccccc2C#N)ccc1Cl
EC50 [1]: > 260 µM (inactive)

S=C(NCCSCc1c(Cl)cccc1Cl)Nc1ccccc1
EC50 [2]: > 160 µM (inactive)
EC50 [3]: > 60 µM (not active)
AC50 (Cytochrome P450 2C9): 10 µM (inconclusive)
EC50 [4]: 2.94 µM (active)

COc1cc(/C=C/C(=O)O)cc(S(=O)(=O)NCCCO)c1OC
AC50 (Cytochrome P450 2C9): 10 µM (inconclusive)

CCOc1ccc(NC(=O)N(C2CCCCC2)C(C)c2ccncc2)cc1 (stereo not drawn)
AC50 (Cytochrome P450 2D6): 17.8 µM (inconclusive)

Cc1cc(=O)oc(C)c1C(=O)NCc1cccnc1
AC50 (Cytochrome P450 2C9): 3.16 µM (inconclusive)
AC50 (Cytochrome P450 3A4): 25.1 µM (inconclusive)

CCCn1nnnc1-c1cccc(Cl)c1
AC50 (Cytochrome P450 2C9): 1.26 µM (inconclusive)

Cc1cc(C)n(-c2ccc(C(=O)Nc3cc(C(F)(F)F)ccc3N3CCOCC3)cc2)n1
AC50 (Cytochrome P450 2C19): 10 µM (inconclusive)
AC50 (Cytochrome P450 3A4): 14.1 µM (inconclusive)

Cc1ccc(C(C)(O)CS(=O)(=O)Cc2ccccc2Cl)cc1 (stereo not drawn)
EC50 [1]: > 260 µM (inactive)

COc1ccc(NC(=O)c2cc(C)n(Cc3cccs3)c2C)cc1
EC50 [1]: 106 µM (inconclusive)

CCOC(=O)CNC(c1ccccc1)c1cc(Br)ccc1NC(=O)CCN1CCOCC1 (stereo not drawn)
EC50 [2]: 39.4 µM (active)
EC50 [5]: 3.44 µM (active)

O=C(Oc1cccc2cccnc12)c1cccc(N2C(=O)C3C4CCC(C4)C3C2=O)c1 (stereo not drawn)
AC50 (INS1): 16.2 µM (active)

COc1ccc(/C=C2\N=C(SC)N(C)C2=O)cc1
AC50 (Cytochrome P450 3A4): 28.2 µM (inconclusive)

Cc1ccc(OCc2cc(C(=O)N(C)Cc3cc(C4CC4)[nH]n3)no2)cc1C
AC50 (INS1): > 260 µM (inactive)

C=CCn1c(SCC)nc2sc3c(c2c1=O)CCc1ccccc1-3
AC50 (Cytochrome P450 2D6): 11.2 µM (inconclusive)

CNc1ncc(C(=O)c2ccccc2)s1
AC50 (Cytochrome P450 2C9): 7.94 µM (inconclusive)
AC50 (Cytochrome P450 2C19): 2.24 µM (inconclusive)
AC50 (Cytochrome P450 3A4): 28.2 µM (inconclusive)

NC(=O)CC12CC3CC(C1)CC(CC(N)=O)(C3)C2
EC50 [2]: > 160 µM (inactive)
EC50 [5]: > 38 µM (not active)

O=C(c1cc(Cl)c(=O)n(Cc2ccc(Cl)cc2)c1)N1CCOCC1
AC50 (Cytochrome P450 3A4): 28.2 µM (inconclusive)

Cc1ccc(O)c(-c2cc3ccccc3[nH]2)c1
EC50 [2]: > 160 µM (inactive)
EC50 [5]: > 38 µM (not active)

Cc1cc(O)c2n(Cc3ccccc3Cl)nc[n+]2n1
EC50 [1]: > 260 µM (inactive)

CC(=O)NC(c1ccco1)c1cc(F)c2cccnc2c1O (stereo not drawn)
AC50 (INS1): 2.71 µM (active)

Cc1noc(C)c1CS(=O)(=O)c1ccc(Br)cc1
AC50 (Cytochrome P450 2C9): 31.6 µM (inconclusive)

O=C(COc1ccccc1)Nc1cc(C(F)(F)F)ccc1N1CCCC1
AC50 (Cytochrome P450 2D6): 17.8 µM (inconclusive)

CCC(C)c1ccc(Nc2ncccc2C#N)cc1 (stereo not drawn)
AC50 (Cytochrome P450 2D6): 28.2 µM (inconclusive)

CS/C(=C\[N+](=O)[O-])Nc1ccc(Cl)cc1
EC50 [2]: > 150 µM (inconclusive)
EC50 (Protein RecA): 12.7 µM (active)
EC50 [5]: > 38 µM (not active)
AC50 [6]: 23.2 µM (active)

CCNC(=O)NC(=O)CSc1nc2ccccc2n1CC(C)C
AC50 (Cytochrome P450 2D6): 14.1 µM (inconclusive)
AC50 (Cytochrome P450 2C9): 20 µM (inconclusive)

c1csc(CN2CCCC3(CCNCC3)C2)n1
AC50 (Cytochrome P450 2C9): 31.6 µM (inconclusive)

Cc1nc2c(n1C1CCCCC1)C(=O)c1ccccc1C2=O
AC50 (Cytochrome P450 2D6): 22.4 µM (inconclusive)

NCCc1c[nH]c2ccc(OC(=O)C(=O)O)cc12
AC50 (Cytochrome P450 2C9): 3.98 µM (inconclusive)
AC50 (Cytochrome P450 2C19): 1.58 µM (inconclusive)

c1ccc2c(CC3NCCN3)cccc2c1
AC50 (Cytochrome P450 2D6): 3.98 µM (inconclusive)

COc1cc2c(cc1OC)C(C(=O)Nc1cccc(C)n1)C(c1cccnc1)N(C)C2=O (stereo not drawn)
AC50 (Cytochrome P450 2C9): 0.00562 µM (inconclusive)
AC50 (Cytochrome P450 3A4): 15.8 µM (inconclusive)

Oc1ccc2ccccc2c1/C=N\Cc1c(O)ccc2ccccc12
AC50 (Cytochrome P450 2D6): 3.98 µM (inconclusive)

COCCNC(=O)c1ccc2c(c1)ncn2-c1ccc(F)c(F)c1
AC50 (Cytochrome P450 2C9): 17.8 µM (inconclusive)
AC50 (Cytochrome P450 2C19): 28.2 µM (inconclusive)

CCc1nc(SCC(=O)c2ccc(Cl)s2)c2oc3ccccc3c2n1
EC50 [1]: 43.5 µM (active)

CCOC(=O)c1sc(C)c(C(=O)NCC(C)(C)CN(C)C)c1N
AC50 (Cytochrome P450 2C9): 39.8 µM (inconclusive)

Cc1nn(C(CC(=O)O)C(=O)O)c(C)c1Br (stereo not drawn)
EC50 [1]: > 260 µM (inactive)

COc1ncc2nc(CCc3ccccc3)c(=O)n(-c3ccccc3)c2n1
AC50 (Cytochrome P450 2C9): 25.1 µM (inconclusive)

COC(=O)[C@@H]1C[C@H]1[C@@H](NC(=O)c1cc(C)on1)c1ccccc1
AC50 (Cytochrome P450 2C9): 39.8 µM (inconclusive)
AC50 (Cytochrome P450 3A4): 31.6 µM (inconclusive)

CCCCCCC1CC(C)(/C(C)=N/NC(N)=O)OC1=O (stereo not drawn)
AC50 (Cytochrome P450 3A4): 17.8 µM (inconclusive)

CCn1c(C)c(/C=N/Nc2nc3ccccc3s2)c2ccccc21
EC50 [3]: > 60 µM (not active)
AC50 (Cytochrome P450 2D6): 14.1 µM (inconclusive)
EC50 [4]: 2.5 µM (active)
